According to US7273848B2, “Apolipoprotein A-I agonists and their use to treat dyslipidemic disorders” (priority 1997, dated 2007):
Several values for one entry are separate records, joined by “and”; a condition that tells them apart may be missing. Equal values may be shown once. No end group written: not given here.

Key:
[1] = system: HDL cholesterol; assay: HDL cholesterol in rabbits after injection of phospholipid/peptide complex; assay type: in vivo, rabbit; conditions: for Increase in HDL Cholesterol (%): 8 mg/kg i.v. as peptide/DPPC complexes
Method: Small discoidal particles consisting of phospholipid (DPPC) and peptide 146 (SEQ ID NO:146) were prepared following the cholate dialysis method. The phospholipid was dissolved in chloroform and dried under a stream of nitrogen. The peptide was dissolved in buffer (saline) at a concentration of 1-2 mg/ml. The lipid film was redissolved in buffer containing cholate (43° C.) and the peptide solution was added at a 3-1 phospholipid/peptide ratio. The mixture was incubated overnight at 43° C. and then dialyzed at 43° C. (24 hr.), room temperature (24 hr.) and 4° C. (24 hr.), with three changes of buffer (large volumes) at temperature point. The complexes were filter sterilized (0.22μ) for injection and storage at 4° C.
Male New Zealand White rabbits (2.5-3 kg) were injected intravenously with a dose of phospholipid/peptide complex (8 mg/kg bodyweight peptide 146 (SEQ ID NO:146) or 10 mg/kg bodyweight ApoA-I, expressed as peptide or protein content) in a single bolus injection not exceeding 10-15 ml. The animals were slightly sedated before the manipulations. Blood samples (collected on EDTA) were taken before and 5, 15, 30, 60, 240 and 1440 minutes after injection. The hematocrit (Hct) was determined for each sample. Samples were aliquoted and stored at −20° C. before analysis.
Plasma Lipids. The total plasma cholesterol, plasma triglycerides and plasma phospholipids were determined enzymatically using commercially available assays according to the manufacturer's protocols (Boehringer Mannheim, Mannheim, Germany and Biomerieux, 69280, Marcy-l'étoile, France).
Lipoprotein Profiles. The plasma lipoprotein profiles of the fractions obtained after the separation of the plasma into its lipoprotein fractions were determined by spinning in a sucrose density gradient. The fractions were collected and in each individual fraction the phospholipid and cholesterol content was measured enzymatically.

[2] = Superose 6 gel filtration chromatography of peptide-lipid complexes; assay type: physicochemical; conditions: peptide/DPPC complexes, 1 mg peptide and 3 mgs DPPC, colyophilized, in 0.9% NaCl
Method: An aliquot of the resulting reconstituted preparation can be characterized to confirm that the complexes in the preparation have the desired size distribution; e.g., the size distribution of HDL. Gel filtration chromatography can be used to this end. In the working examples described infra, a Pharmacia Superose 6 FPLC gel filtration chromatography system was used. The buffer used contains 150 mM NaCl in 50 mM phosphate buffer, pH 7.4. A typical sample volume is 20 to 200 microliters of complexes containing 5 mgs peptide/ml. The column flow rate is 0.5 mls/min. A series of proteins of known molecular weight and Stokes' diameter as well as human HDL are used as standards to calibrate the column. The proteins and lipoprotein complexes are monitored by absorbance or scattering of light of wavelength 254 or 280 nm.
Peptide-phospholipid complexes containing peptide 149 (SEQ ID NO:149) were prepared by colyophilization as described above. The preparation contained 1 mg peptide and 3 mgs DPPC by weight. […] The chromatography was monitored by absorbance or scattering of light of wavelength 280 nm. […] The vast majority of both phospholipid and UV absorbance were recovered together in a few fractions with peaks at approximately 15.8 mls. […]

Sequence | duration of the increase in cholesterol of the HDL cholesterol fractions ([1]; 8 mg/kg as peptide/DPPC complexes, apparent at 5 min.) | Increase in HDL Cholesterol (%) ([1]; 5 min.) | Increase in HDL Cholesterol (%) ([1]; 15 min.) | Increase in HDL Cholesterol (%) ([1]; 60 min.) | Increase in HDL Cholesterol (%) ([1]; 240 min., 8 mg/kg) | Increase in HDL Cholesterol (%) ([1]; 1440 min.) | mobilization of peripheral cholesterol (in words) ([1]; peptide/DPPC complexes 8 mg/kg) | Stokes' diameter [2] [Angstroms]
PVLELFENLLERLLDALQKKLK [peptide 146] | approximately 24 hr | 31.3 | 60.4 | 42.9 | 90% and 90.2% | 71.2 | induces rapid and efficient mobilization of peripheral cholesterol | 
PVLELFENLWERLLDALQKKLK [peptide 149] |  |  |  |  |  |  |  | 87
